For five molecules, Ki, Kina and IC50 results are on record in ChEMBL document CHEMBL1128990, “Design, synthesis, and characterization of dipeptide isostere containing cis-epoxide for the irreversible inactivation of HIV protease” (Bioorg Med Chem Lett, 1996).

Test [1] has as its target Human immunodeficiency virus type 1 protease (Human immunodeficiency virus 1, UniProt Q72874). Description: Inhibitory activity against HIV protease was determined.
In test [2] the target is Human immunodeficiency virus type 1 protease (Human immunodeficiency virus 1) (UniProt Q72874). The test can be described thus: Kinetic parameter (kina) value was determined for the compound.
In the next test the target is Cathepsin D (Homo sapiens, UniProt P07339). Description: Inhibitory activity against human cathepsin D was determined.
Cathepsin D, sequence (P07339 65-162 limits assumed): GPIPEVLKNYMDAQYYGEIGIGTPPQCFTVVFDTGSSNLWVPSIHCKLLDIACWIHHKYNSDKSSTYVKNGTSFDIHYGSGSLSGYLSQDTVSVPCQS
Cathepsin D, sequence (P07339 169-412 limits assumed): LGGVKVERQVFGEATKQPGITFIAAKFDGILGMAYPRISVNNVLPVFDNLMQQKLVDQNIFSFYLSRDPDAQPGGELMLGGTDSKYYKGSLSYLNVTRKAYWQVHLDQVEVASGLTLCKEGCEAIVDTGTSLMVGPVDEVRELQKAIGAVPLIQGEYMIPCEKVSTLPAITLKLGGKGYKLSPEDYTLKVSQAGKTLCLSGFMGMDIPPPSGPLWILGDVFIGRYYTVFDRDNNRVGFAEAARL

Consider `CC(C)C(NC(=O)[C@@H]1O[C@@H]1[C@H](Cc1ccccc1)NC(=O)OCc1ccccc1)C(=O)O` (stereo partly specified), for which the Ki in test [1] is over 10000 µM. In test [2], this molecule came in with a Kina of 0.02 min⁻¹.
The like results for `CCC(C)C(NC(=O)C[C@H]1O[C@H]1[C@H](Cc1ccccc1)NC(=O)C(CC(N)=O)NC(=O)c1ccc2ccccc2n1)C(=O)O` (mixture of isomers) were, in that order, 0.018 µM and 0.22 min⁻¹.
Consider `CC(C)C(NC(=O)C[C@@H]1O[C@@H]1[C@H](Cc1ccccc1)NC(=O)C(CC(N)=O)NC(=O)c1ccc2ccccc2n1)C(C)C` (stereo partly specified), for which it took 12.5 µM to reach half-maximal inhibition against Cathepsin D (IC50). This molecule also yielded a Ki in test [1] of 0.001 µM. The same molecule yielded a Kina in test [2] of 0.2 min⁻¹.
As for `CC(C)C(NC(=O)C[C@H]1O[C@H]1[C@H](Cc1ccccc1)NC(=O)OCc1ccccc1)C(=O)O` (stereo partly specified), in test [1], the affinity, expressed as Ki, was 1.32 µM. In test [2], this molecule showed a Kina of 1.48 min⁻¹.
The like results for `CC(C)C(NC(=O)C[C@H]1O[C@@H]1[C@H](Cc1ccccc1)NC(=O)OCc1ccccc1)C(=O)O` (stereo partly specified) were, in that order, 200 µM and 0.2 min⁻¹.
